Columns and labels:
[1] = tested on: Triticum aestivum (TRZAS); experiment: In vivo analyses Part C: drought stress, appearance vs stressed control plants in categories (TRZAS); set-up: key: 0: no positive effect; 10: slight positive effect; 20: clear positive effect; 30: strong positive effect; conditions: appearance vs stressed control plants after recovery phase, efficacy range of 3-4 pots
Procedure: Seeds of monocotyledonous and dicotyledonous crop plants were sown in sandy loam in plastic or wood-fibre pots, covered with soil or sand and cultivated in a greenhouse under good growth conditions. The test plants were treated at the early leaf stage (BBCH10-BBCH13). To assure uniform water supply before commencement of stress, the potted plants were supplied with water by dam irrigation prior to substance application. The inventive compounds were first formulated as wettable powders (WP) or dissolved in a solvent mixture. The further dilution was effected with water supplemented with 0.2% wetting agent (e.g. agrotin). The finished spray liquor was sprayed onto the green parts of the plant at an equivalent water application rate of 600 I/ha. Substance application was followed immediately by stress treatment of the plants. For this purpose, the wood-fibre pots were transferred in plastic inserts in order to prevent them from subsequently drying out too quickly. Drought stress was induced by gradual drying out under the following conditions: “Day”: 14 hours with illumination at 26-30° C. “Night”: 10 hours without illumination at 18-20° C. The duration of the respective stress phases was guided mainly by the condition of the stressed control plants. It was ended (by re-irrigating and transfer to a greenhouse with good growth conditions) as soon as irreversible damage was observed on the stressed control plants. The end of the stress phase was followed by an about 4-7-day recovery phase, during which the plants were once again kept under good growth conditions in a greenhouse. The duration of the recovery phase was guided mainly by when the trial plants had attained a state which enabled visual scoring of potential effects, and was therefore variable. Once this juncture had been reached, the appearance of the plants treated with test substances was recorded in comparison to the stressed control plants by the following categories: [table] For each substance and dosage, 3-4 pots were treated and evaluated. TRZAS=Triticum aestivum

[2] = tested on: Triticum aestivum (TRZAS); experiment: In vivo analyses Part A: drought stress, visual damage scoring, efficacy EF (TRZAS); conditions: spray application 25 g/ha, efficacy = reduction in damage intensity
Procedure: (§1) Seeds of monocotyledonous and dicotyledonous crop plants were sown in sandy loam in wood-fibre pots, covered with soil or sand and cultivated in a greenhouse under good growth conditions. The test plants were treated at the early leaf stage (BBCH10-BBCH13). To assure uniform water supply before commencement of stress, the potted plants were supplied with water by dam irrigation prior to substance application. The inventive compounds, formulated in the form of wettable powders (WP), were sprayed onto the green parts of the plants as an aqueous suspension at an equivalent water application rate of 600 I/ha with addition of 0.2% wetting agent (e.g. agrotin). Substance application was followed immediately by stress treatment of the plants. For this purpose, the pots were transferred in plastic inserts in order to prevent them from subsequently drying out too quickly. Drought stress was induced by gradual drying out under the following conditions: “Day”: 14 hours with illumination at 26° C. “Night”: 10 hours without illumination at 18° C. The duration of the respective stress phases was guided mainly by the condition of the stressed control plants. It was ended (by re-irrigating and transfer to a greenhouse with good growth conditions) as soon as irreversible damage was observed on the stressed control plants. The end of the stress phase was followed by an about 4-7-day recovery phase, during which the plants were once again kept under good growth conditions in a greenhouse. The duration of the recovery phase was guided mainly by when the trial plants had attained a state which enabled visual scoring of potential effects, and was therefore variable. Once this juncture was reached, the intensities of damage were scored visually in comparison to untreated, unstressed controls of the same age. The damage intensity was at first assessed in percent. […]

[3] = tested on: Brassica napus (BRSNS); experiment: In vivo analyses Part A: drought stress, visual damage scoring, efficacy EF (BRSNS); conditions: spray application 250 g/ha, efficacy = reduction in damage intensity
Procedure: as §1

Compound | Effect (TRZAS) ([1]; dosage 250 g/ha) | EF [%] (TRZAS) [2] | EF [%] (BRSNS) [3] | Effect (TRZAS) ([1]; dosage 25 g/ha)
CC/C(C#CC(O)(C1CCC1)C1(C#N)CC1)=C/C(=O)OC (stereo not drawn) [I.1-648] | 10-20 |  |  | 
CCOC(=O)/C=C(\C#CC(O)(C(C)C)C1(C#N)CC1)C1CC1 (stereo not drawn) [I.1-124, Ethyl (2Z)-6-(1-cyanocyclopropyl)-3-cyclopropyl-6-hydroxy-7-methyloct-2-en-4-ynoate] |  | >5 | >5 | 
CCOC(=O)/C=C(/C)C#CC(O)(C(C)C)C1(C#N)CC1 (stereo not drawn) [I.1-136] |  | >5 | >5 | 
CCC(C=CC(O)(c1ccccc1)C1(C#N)CC1)=CC(=O)O (racemic) [I.2-201] |  |  |  | 10

From US10322995B2, “Substituted cyano cycloalkyl penta-2,4-dienes, cyano cycloalkyl pent-2-en-4-ynes, cyano heterocyclyl penta-2,4-dienes and cyano heterocyclyl pent-2-en-4-ynes as active substances against abiotic plant stress” (BAYER CROPSCIENCE AKTIENGESELLSCHAFT, priority 2014, dated 2019)
